Data taken from patent publication US20120083476A1, “HETEROARYL-SUBSTITUTED SPIROCYCLIC DIAMINE UREA MODULATORS OF FATTY ACID AMIDE HYDROLASE” (Janssen Pharmaceutica NV, priority 2009, published 2012).
Where a name gives a salt, the structure may show the parent alone. Read-outs that look alike come from different tables or passages of the source.

Columns and labels:
[1] = target: T1, FAAH (Homo sapiens, UniProt O00519); experiment: Assay Method 1: human FAAH assay (3H-anandamide hydrolysis in cell homogenate); assay type: biochemical; design: expressed in transfected cells; host or cells: SK-N-MC cells stably transfected with human FAAH cDNA (G418 selection); alternatively T84 cell pellets
T1 sequence (O00519 1-579): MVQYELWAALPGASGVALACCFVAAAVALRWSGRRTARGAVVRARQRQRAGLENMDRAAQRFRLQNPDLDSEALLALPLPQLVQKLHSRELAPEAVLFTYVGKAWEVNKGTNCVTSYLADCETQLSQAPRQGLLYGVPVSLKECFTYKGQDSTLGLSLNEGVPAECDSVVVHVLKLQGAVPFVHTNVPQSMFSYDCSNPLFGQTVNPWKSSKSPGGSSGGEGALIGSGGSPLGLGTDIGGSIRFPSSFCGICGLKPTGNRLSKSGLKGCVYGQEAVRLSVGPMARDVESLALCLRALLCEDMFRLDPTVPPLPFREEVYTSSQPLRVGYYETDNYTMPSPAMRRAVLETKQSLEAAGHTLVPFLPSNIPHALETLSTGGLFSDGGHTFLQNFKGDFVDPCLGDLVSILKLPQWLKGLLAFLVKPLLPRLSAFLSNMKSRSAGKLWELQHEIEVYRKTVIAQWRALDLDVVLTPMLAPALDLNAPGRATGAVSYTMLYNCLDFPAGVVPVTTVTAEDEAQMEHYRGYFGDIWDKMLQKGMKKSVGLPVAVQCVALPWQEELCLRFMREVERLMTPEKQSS
How it was run: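 Homogenates of T84 cells or SK-N-MC cells stably transfected with human FAAH, in pH 9 Tris/EDTA buffer with 0.02% Triton X-100. Incubated 1 h at rt with compound and 80 nM (final) [3H-ethanolamine]-anandamide. Released 3H-ethanolamine separated on charcoal filters and counted by scintillation.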

[2] = target: T2, Rat FAAH (Rattus norvegicus, UniProt P97612); experiment: Assay Method 2: rat FAAH assay (3H-anandamide hydrolysis in cell homogenate); assay type: biochemical
T2 construct: expressed in transfected cells; host or cells: SK-N-MC cells stably transfected with rat FAAH cDNA (G418 selection)
T2 sequence (P97612 1-579): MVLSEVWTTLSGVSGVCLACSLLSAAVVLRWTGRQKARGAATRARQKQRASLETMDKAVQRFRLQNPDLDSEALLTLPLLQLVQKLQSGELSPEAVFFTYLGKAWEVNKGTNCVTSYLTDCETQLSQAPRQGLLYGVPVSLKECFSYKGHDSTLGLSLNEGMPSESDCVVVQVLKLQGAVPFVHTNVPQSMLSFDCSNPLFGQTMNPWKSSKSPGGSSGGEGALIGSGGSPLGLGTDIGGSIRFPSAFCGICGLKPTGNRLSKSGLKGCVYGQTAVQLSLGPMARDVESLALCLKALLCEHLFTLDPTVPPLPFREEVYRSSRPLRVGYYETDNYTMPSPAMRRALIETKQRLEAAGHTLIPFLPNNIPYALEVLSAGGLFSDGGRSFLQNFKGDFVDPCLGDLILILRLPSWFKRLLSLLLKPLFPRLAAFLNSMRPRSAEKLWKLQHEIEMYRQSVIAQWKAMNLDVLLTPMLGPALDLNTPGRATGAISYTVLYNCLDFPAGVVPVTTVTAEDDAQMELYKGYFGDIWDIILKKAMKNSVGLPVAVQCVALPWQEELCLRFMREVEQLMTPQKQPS
How it was run: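 Homogenates of T84 cells or SK-N-MC cells stably transfected with rat FAAH, in pH 9 Tris/EDTA/glycerol/Triton buffer, incubated 1 h at room temperature with 3H-anandamide. Released labeled ethanolamine separated from substrate on activated charcoal and counted by scintillation; values averaged over runs.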

SMILES | IC50 ([1]; read-out: Assay 1 IC50) [nM] | IC50 ([2]; read-out: Assay 2 IC50) [nM] | IC50 [1] [nM] | IC50 [2] [nM]
O=C(Nc1noc2ncccc12)N1CC2(CCN(Cc3cccc(Oc4ccc(Cl)cc4)c3)CC2)C1 [Example 66, 7-[3-(4-Chloro-phenoxy)-benzyl]-2,7-diaza-spiro[3.5]nonane-2-carboxylic acid isoxazolo[5,4-b]pyridin-3-ylamide, trifluoroacetic acid salt] | 130 | 600 |  | 
O=C(Nc1noc2cccnc12)N1CC2(CCN(Cc3cccc(Oc4ccc(Cl)cc4)c3)CC2)C1 [Example 67, 7-[3-(4-Chloro-phenoxy)-benzyl]-2,7-diaza-spiro[3.5]nonane-2-carboxylic acid isoxazolo[4,5-b]pyridin-3-ylamide, trifluoroacetic acid salt] | 160 | 10 |  | 
O=C(Nc1ccc2nccn2c1)N1CC2(CCN(Cc3cccc(Oc4ccc(Cl)cc4)c3)CC2)C1 [Example 69, 7-[3-(4-Chloro-phenoxy)-benzyl]-2,7-diaza-spiro[3.5]nonane-2-carboxylic acid imidazo[1,2-a]pyridin-6-ylamide, trifluoroacetic acid salt] | > 10000 | > 10000 |  | 
COc1ccc(NC(=O)N2CC3(CCN(Cc4cccc(Oc5ccc(Cl)cc5)c4)CC3)C2)nn1 [Example 70, 7-[3-(4-Chloro-phenoxy)-benzyl]-2,7-diaza-spiro[3.5]nonane-2-carboxylic acid (6-methoxy-pyridazin-3-yl)-amide, trifluoroacetic acid salt] | 3000 | 2400 |  | 
O=C(Nc1ccnc(C(F)(F)F)n1)N1CC2(CCN(Cc3cccc(Oc4ccc(Cl)cc4)c3)CC2)C1 [Example 71, 7-[3-(4-Chloro-phenoxy)-benzyl]-2,7-diaza-spiro[3.5]nonane-2-carboxylic acid (2-trifluoromethyl-pyrimidin-4-yl)-amide, trifluoroacetic acid salt] | > 10000 | 5000 |  | 
COc1nccc(NC(=O)N2CC3(CCN(Cc4cccc(Oc5ccc(Cl)cc5)c4)CC3)C2)n1 [Example 72, 7-[3-(4-Chloro-phenoxy)-benzyl]-2,7-diaza-spiro[3.5]nonane-2-carboxylic acid (2-methoxy-pyrimidin-4-yl)-amide, trifluoroacetic acid salt] | 1700 | 60 |  | 
Cc1nn(C)c2ncc(NC(=O)N3CC4(CCN(Cc5cccc(Oc6ccc(Cl)cc6)c5)CC4)C3)cc12 [Example 75, 7-(3-(4-chlorophenoxy)benzyl)-N-(1,3-dimethyl-1H-pyrazolo[3,4-b]pyridin-5-yl)-2,7-diazaspiro[3.5]nonane-2-carboxamide, trifluoroacetic acid salt] | 2500 | 400 |  | 
Cc1cc(NC(=O)N2CC3(CCN(Cc4cccc(Oc5ccc(Cl)cc5)c4)CC3)C2)no1 [Example 76, 7-(3-(4-chlorophenoxy)benzyl)-N-(5-methylisoxazol-3-yl)-2,7-diazaspiro[3.5]nonane-2-carboxamide, trifluoroacetic acid salt] | > 10000 | > 10000 |  | 
Cc1nc2ccc(NC(=O)N3CC4(CCN(Cc5cccc(Oc6ccc(Cl)cc6)c5)CC4)C3)cc2s1 [Example 77, 7-(3-(4-chlorophenoxy)benzyl)-N-(2-methylbenzo[d]thiazol-6-yl)-2,7-diazaspiro[3.5]nonane-2-carboxamide, trifluoroacetic acid salt] | > 10000 | > 10000 |  | 
Cc1cc(NC(=O)N2CC3(CCN(Cc4cccc(Oc5ccc(Cl)cc5)c4)CC3)C2)n[nH]1 [Example 78, 7-(3-(4-chlorophenoxy)benzyl)-N-(5-methyl-1H-pyrazol-3-yl)-2,7-diazaspiro[3.5]nonane-2-carboxamide, trifluoroacetic acid salt] | > 10000 | > 10000 |  | 
O=C(Nc1ccc(N2CCCCC2)nc1)N1CC2(CCN(Cc3cccc(Oc4ccc(Cl)cc4)c3)CC2)C1 [Example 81, 7-(3-(4-chlorophenoxy)benzyl)-N-(6-(piperidin-1-yl)pyridin-3-yl)-2,7-diazaspiro[3.5]nonane-2-carboxamide, trifluoroacetic acid salt] | 1600 | 3000 |  | 
Cc1ccncc1NC(=O)N1CC2(CCN(Cc3cccc(Oc4ccc(Cl)cc4)c3)CC2)C1 [Example 85, 7-(3-(4-chlorophenoxy)benzyl)-N-(4-methylpyridin-3-yl)-2,7-diazaspiro[3.5]nonane-2-carboxamide] |  | 40 | 80 | 
O=C(Nc1ccc(-n2nccn2)nc1)N1CC2(CCN(Cc3ccc4c(c3)OC(F)(F)O4)CC2)C1 [Example 88, 7-(2,2-Difluoro-benzo[1,3]dioxol-5-ylmethyl)-2,7-diaza-spiro[3.5]nonane-2-carboxylic acid (6-[1,2,3]triazol-2-yl-pyridin-3-yl)-amide] | 4000 | > 10000 |  | 
O=C(Nc1cccnc1)N1CCC2(CCN(Cc3cccc(Oc4ccc(Cl)cc4)c3)CC2)C1 [Example 90, 8-[3-(4-Chloro-phenoxy)-benzyl]-2,8-diaza-spiro[4.5]decane-2-carboxylic acid pyridin-3-ylamide, trifluoroacetic acid salt] |  |  | 2000 | 430

Further lines, with some results ahead:

IC50 ([1]; read-out: Assay 1 IC50) [nM] | IC50 ([2]; read-out: Assay 2 IC50) [nM] | SMILES | IC50 [1] [nM] | IC50 [2] [nM]
> 10000 | > 10000 | O=C(Nc1cccc2cn[nH]c12)N1CC2(CCN(Cc3cccc(Oc4ccc(Cl)cc4)c3)CC2)C1 [Example 68, 7-[3-(4-Chloro-phenoxy)-benzyl]-2,7-diaza-spiro[3.5]nonane-2-carboxylic acid (1H-indazol-7-yl)-amide, trifluoroacetic acid salt] |  | 
80 | 450 | O=C(Nc1cncc(F)c1)N1CC2(CCN(Cc3cccc(Oc4ccc(Cl)cc4)c3)CC2)C1 [Example 73, 7-[3-(4-Chloro-phenoxy)-benzyl]-2,7-diaza-spiro[3.5]nonane-2-carboxylic acid (5-fluoro-pyridin-3-yl)-amide, trifluoroacetic acid salt] |  | 
> 10000 | 2000 | O=C(Nc1ccnc2[nH]ccc12)N1CC2(CCN(Cc3cccc(Oc4ccc(Cl)cc4)c3)CC2)C1 [Example 74, 7-[3-(4-Chloro-phenoxy)-benzyl]-2,7-diaza-spiro[3.5]nonane-2-carboxylic acid (1H-pyrrolo[2,3-b]pyridin-4-yl)-amide, trifluoroacetic acid salt] |  | 
70 | 30 | Cc1cncc(NC(=O)N2CC3(CCN(Cc4cccc(Oc5ccc(Cl)cc5)c4)CC3)C2)c1 [Example 79, 7-(3-(4-chlorophenoxy)benzyl)-N-(5-methylpyridin-3-yl)-2,7-diazaspiro[3.5]nonane-2-carboxamide, trifluoroacetic acid salt] |  | 
140 | 570 | O=C(Nc1cccnc1F)N1CC2(CCN(Cc3cccc(Oc4ccc(Cl)cc4)c3)CC2)C1 [Example 80, 7-(3-(4-chlorophenoxy)benzyl)-N-(2-fluoropyridin-3-yl)-2,7-diazaspiro[3.5]nonane-2-carboxamide, trifluoroacetic acid salt] |  | 
280 | 20 | O=C(Nc1cncc(Br)c1)N1CC2(CCN(Cc3cccc(Oc4ccc(Cl)cc4)c3)CC2)C1 [Example 82, N-(5-bromopyridin-3-yl)-7-(3-(4-chlorophenoxy)benzyl)-2,7-diazaspiro[3.5]nonane-2-carboxamide, trifluoroacetic acid salt] |  | 
110 | 10 | N#Cc1ccncc1NC(=O)N1CC2(CCN(Cc3cccc(Oc4ccc(Cl)cc4)c3)CC2)C1 [Example 84, 7-(3-(4-chlorophenoxy)benzyl)-N-(4-cyanopyridin-3-yl)-2,7-diazaspiro[3.5]nonane-2-carboxamide] |  | 
420 | 40 | O=C(Nc1cnccc1C(F)(F)F)N1CC2(CCN(Cc3cccc(Oc4ccc(Cl)cc4)c3)CC2)C1 [Example 86, 7-(3-(4-chlorophenoxy)benzyl)-N-(4-(trifluoromethyl)pyridin-3-yl)-2,7-diazaspiro[3.5]nonane-2-carboxamide] |  | 
